Measured values: patent US20090022824A1, “Pesticidal formulations” (Akhil Technologies Pty Ltd, priority 2005, published 2009)

Test system: root-knot nematode (Meloidogyne javanica)
Assay: Efficacy to control root-knot nematode, pot trial with tomato plants
Type: in vivo
Settings: tomato cv. Tiny Tim, relative to untreated control
Protocol: The efficacy of pesticidal formulations in the control of root-knot nematode (Meloidogyne javanica) as a pre-plant soil pesticidal formulation was investigated.
The root-knot nematode colonies were prepared with 1 kg of river sand placed in 100 mm diameter pots. The sand was inoculated with 10,000 eggs of root-knot nematode (M. javanica). The eggs were harvested from the roots of infected tomato plants (Lycopersicon esculentum cv. Tiny Tim) by washing in a 1% bleach solution for 3 minutes, collecting the […] on a 25 μm sieve and rinsing in running tap water for 2 minutes.
The appropriate treatment was applied to each pot in 5 mL of water using five 1 mL injections spaced evenly around the pot. Each dilution of the pesticidal formulation was applied using a pipette so that the tip of the pipette was 20 mm below the soil surface. The pots were allowed to stand for 7 days before planting a three week old tomato plant (c.v. Tiny Tim) in each pot.
Six weeks after planting the tomatoes were harvested. The tops of the plants were removed and dried for 4 days at 70° C. before being weighed. […] The juvenile nematodes were collected on a 25 μm sieve, backwashed and counted using a compound microscope at 40× magnification. […]

## CNC(=S)[S-].[Na+] [metham sodium]
Six weeks after planting, FIG. 2
  juvenile root-knot nematodes extracted from the roots: significantly fewer
Soil inoculated with 10,000 eggs, harvested six weeks after planting, FIG. 1
  galls on the root system of tomato plants (gall rating): significantly fewer
